Laboratory results as given in patent US12648936B2 (NOVARTIS AG, priority 2019, dated 2026).

Assays:
[1] = target: T1, FKBP51 (Homo sapiens, UniProt Q13451); assay: SPR assay, binding affinity to FKBP51; conditions: single-cycle kinetics, immobilized avi-his6 FKBP51
T1 construct: made in house; host or cells: E. coli
T1 sequence (Q13451 1-457): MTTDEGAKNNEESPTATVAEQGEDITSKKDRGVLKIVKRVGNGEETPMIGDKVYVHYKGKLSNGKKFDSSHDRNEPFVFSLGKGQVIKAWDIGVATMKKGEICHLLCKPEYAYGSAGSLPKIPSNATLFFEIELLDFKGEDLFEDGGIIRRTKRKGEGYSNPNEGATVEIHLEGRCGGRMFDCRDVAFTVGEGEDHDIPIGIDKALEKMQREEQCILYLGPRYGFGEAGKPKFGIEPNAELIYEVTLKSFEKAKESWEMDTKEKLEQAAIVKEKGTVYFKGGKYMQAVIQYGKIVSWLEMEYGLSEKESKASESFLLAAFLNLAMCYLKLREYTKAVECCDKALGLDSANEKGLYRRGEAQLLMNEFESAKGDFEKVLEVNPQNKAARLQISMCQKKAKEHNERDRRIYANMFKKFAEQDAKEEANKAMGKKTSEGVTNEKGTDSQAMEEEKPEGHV
Experimental: (§1) SPR assay to determine binding affinity to FK506-binding proteins (FKBP). […] Each protein was subsequently immobilized on a streptavidin chip in a Biacore 8K SPR instrument (GE Healthcare). Using single-cycle kinetics, compound titrations were flowed at 45 uL/min over each surface using 2-minute association and 30-minute dissociation phases in a buffer containing 50 mM Tris pH 7.5/150 mM NaCl/0.01% Tween 20/1 mM DTT/2% DMSO. The data were fit using low molecular weight (LMW) single-cycle kinetics. The equilibrium dissociation constants (KD) are reported. The equilibrium dissociation constants (KD) to FKBP12, FKBP51, and FKBP52 are listed in Table 2 for the compound of the disclosure.

[2] = target: FKBP12.6 (Homo sapiens, UniProt P68106); assay: SPR assay, binding affinity to FKBP12.6; conditions: single-cycle kinetics
Experimental: as §1

[3] = target: T2, FKBP52 (Homo sapiens, UniProt Q02790); assay: SPR assay, binding affinity to FKBP52; conditions: single-cycle kinetics, immobilized avi-his6 FKBP52
T2 construct: made in house; host or cells: E. coli
T2 sequence (Q02790 1-459): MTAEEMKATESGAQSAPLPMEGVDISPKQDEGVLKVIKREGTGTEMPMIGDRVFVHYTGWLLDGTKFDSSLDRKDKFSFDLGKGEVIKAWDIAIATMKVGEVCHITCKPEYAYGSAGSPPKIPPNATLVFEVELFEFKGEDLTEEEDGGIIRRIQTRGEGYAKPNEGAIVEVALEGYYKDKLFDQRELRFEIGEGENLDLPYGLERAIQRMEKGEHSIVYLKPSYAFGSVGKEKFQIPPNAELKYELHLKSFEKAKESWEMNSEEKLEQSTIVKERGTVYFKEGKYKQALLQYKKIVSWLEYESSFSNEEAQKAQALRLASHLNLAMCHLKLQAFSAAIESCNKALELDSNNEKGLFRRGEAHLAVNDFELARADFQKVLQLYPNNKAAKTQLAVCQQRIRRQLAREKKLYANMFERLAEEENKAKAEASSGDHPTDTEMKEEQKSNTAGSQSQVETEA
Experimental: as §1

[4] = target: T3, FKBP25 (Homo sapiens, UniProt Q00688); assay: SPR assay, binding affinity to FKBP25; conditions: single-cycle kinetics
T3 sequence (Q00688 1-224): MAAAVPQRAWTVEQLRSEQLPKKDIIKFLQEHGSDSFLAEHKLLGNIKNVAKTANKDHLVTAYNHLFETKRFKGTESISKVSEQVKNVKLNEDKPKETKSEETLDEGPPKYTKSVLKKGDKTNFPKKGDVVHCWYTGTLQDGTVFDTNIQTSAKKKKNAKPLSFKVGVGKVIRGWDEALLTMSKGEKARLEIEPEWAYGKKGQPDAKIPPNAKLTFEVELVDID
Experimental: as §1

[5] = tested on: S6K1(Thr389) phosphorylation (mTORC1 activity) in FKBP12 knock-out 293T cells; assay: pS6K1(Thr389) sandwich ELISA in FKBP12 knock-out 293T cells; type: cell-based; conditions: 2 hours, dose range 1000 nM to 0.0033 nM, relative to DMSO media (FIG. 1B)
Experimental: Cells were treated in triplicate. The Y axis represents percent inhibition of pS6K1(Thr389) relative to the level in cells treated with rapalog free media (media plus DMSO).
Generation of FKPB12 knock-out 293T cells.
WT and FKBP12 knock-out 293T cells were plated at a density of 30,000 cells per well in poly-D-Lysine coated 96-well plates (Corning, #354461) in Dulbecco's modified Eagle's medium (ThermoFisher, #11995-065) supplemented with 10% fetal bovine serum (ThermoFisher, #16140-071). Cells were incubated at 37° C., 5% CO2 for 48 hours until they reached ˜80% confluence. […] Media supplemented with blank Dimethyl sulfoxide (DMSO) was used as a control for both compounds. Phosphorylated amounts of S6K1 (Thr389) were detected by a sandwich ELISA kit (Cell signaling, #7063C) following the manufacture's protocol.
S6K1 is a downstream target of mTORC1 and phosphorylation of its rapalog-sensitive Thr389 site is used as a functional readout of mTORC1 activity (Lee, C. H., Inoki, K. and Guan, K. L. (2007). mTOR pathway as a target in tissue hypertrophy. Annu. Rev. Pharmacol. Toxicol. 47, 443-467).

[6] = tested on: pS6 (Ser240/244) in MEF TSC1−/− cells (mTORC1 signaling); assay: Cell-based assay for rapalog potency (pS6 in MEF TSC1-/- cells); set-up: species or system Mouse; conditions: 2 hours treatment, average from multiple assays
[7] = target: T4, FKBP12 (Homo sapiens, UniProt P62942); assay: SPR assay, binding affinity to FKBP12; conditions: single-cycle kinetics, immobilized avi-his6 FKBP12
T4 construct: made in house; host or cells: E. coli
Experimental: as §1

T4 sequence (P62942 whole entry): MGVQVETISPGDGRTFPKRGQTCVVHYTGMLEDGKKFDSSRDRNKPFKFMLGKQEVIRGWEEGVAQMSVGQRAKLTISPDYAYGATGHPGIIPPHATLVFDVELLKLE
FKBP12.6, sequence (P68106 whole entry, species assumed): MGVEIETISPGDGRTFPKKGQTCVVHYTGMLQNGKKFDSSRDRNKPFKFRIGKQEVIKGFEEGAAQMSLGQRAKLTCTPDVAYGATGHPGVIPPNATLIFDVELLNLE

| Structure (SMILES) | Kd [1] | Kd [2] | Kd [3] | Kd [4] | IC50 ([6]; Mus musculus, 2 h) | Kd [7] | IC50 [6] | inhibition of S6K1(Thr389) phosphorylation [5] |
| --- | --- | --- | --- | --- | --- | --- | --- | --- |
| CO[C@@H]1C[C@H](C[C@@H](C)[C@@H]2CC(=O)[C@H](C)/C=C(\C)[C@@H](O)[C@@H](OC)C(=O)[C@H](C)C[C@H](C)/C=C/C=C/C=C(\C)C(N3CCCS3(=O)=O)C[C@@H]3CC[C@@H](C)[C@@](O)(O3)C(=O)C(=O)N3CCCC[C@H]3C(=O)O2)CC[C@H]1O (stereo partly drawn) [Compound 1] | 2040 nM | 56 nM | 3550 nM | 28900 nM | 1.36 nM | 6.4 nM | – | no longer inhibited |
| CO[C@@H]1C[C@H](C[C@@H](C)[C@@H]2CC(=O)[C@H](C)/C=C(\C)[C@@H](O)[C@@H](OC)C(=O)[C@H](C)C[C@H](C)/C=C/C=C/C=C(\C)C(N3CCCS3(=O)=O)C[C@@H]3CC[C@@H](C)[C@@](O)(O3)C(=O)C(=O)N3CCCC[C@H]3C(=O)O2)CC[C@H]1OCCO (single isomer, unassigned) [Compound 2] | – | – | – | – | – | – | 22.5 nM | – |

More lines, main results first:

| Kd [1] | Kd [2] | Kd [3] | Kd [4] | IC50 ([6]; Mus musculus, 2 h) | Kd [7] | IC50 [6] | Structure (SMILES) | inhibition of S6K1(Thr389) phosphorylation [5] |
| --- | --- | --- | --- | --- | --- | --- | --- | --- |
| – | – | – | – | 0.05 nM | – | – | CO[C@H]1C[C@@H]2CC[C@@H](C)[C@@](O)(O2)C(=O)C(=O)N2CCCC[C@H]2C(=O)O[C@H]([C@H](C)C[C@@H]2CC[C@@H](O)[C@H](OC)C2)CC(=O)[C@H](C)/C=C(\C)[C@@H](O)[C@@H](OC)C(=O)[C@H](C)C[C@H](C)/C=C/C=C/C=C/1C [Rapamycin, reference compound] | – |
| – | – | – | – | – | – | 8.3 nM | CO[C@@H]1C[C@H](C[C@@H](C)[C@@H]2CC(=O)[C@H](C)/C=C(\C)[C@@H](O)[C@@H](OC)C(=O)[C@H](C)C[C@H](C)/C=C/C=C/C=C(\C)C(N3CCCS3(=O)=O)C[C@@H]3CC[C@@H](C)[C@@](O)(O3)C(=O)C(=O)N3CCCC[C@H]3C(=O)O2)CC[C@H]1OCCO (single isomer, unassigned) [Compound 3] | – |
| 2580 nM | – | 2580 nM | – | 3.4 nM | 10.9 nM | – | CO[C@@H]1C[C@H](C[C@@H](C)[C@@H]2CC(=O)[C@H](C)/C=C(\C)[C@@H](O)[C@@H](OC)C(=O)[C@H](C)C[C@H](C)/C=C/C=C/C=C(\C)C(N3CCCCS3(=O)=O)C[C@@H]3CC[C@@H](C)[C@@](O)(O3)C(=O)C(=O)N3CCCC[C@H]3C(=O)O2)CC[C@H]1O (stereo partly drawn) [Compound 4] | – |
| 396 nM | 12 nM | 676 nM | 25 nM | 0.05 nM | 288 nM | – | CO[C@H]1C[C@@H]2CC[C@@H](C)[C@@](O)(O2)C(=O)C(=O)N2CCCC[C@H]2C(=O)O[C@H]([C@H](C)C[C@@H]2CC[C@@H](OCCO)[C@H](OC)C2)CC(=O)[C@H](C)/C=C(\C)[C@@H](O)[C@@H](OC)C(=O)[C@H](C)C[C@H](C)/C=C/C=C/C=C/1C [RAD001, everolimus, reference compound] | ~50% |
